{
  "source": "patent US20220062299A1",
  "about": "“USE OF GLUCOCORTICOID STEROIDS IN PREVENTING AND TREATING CONDITIONS OF MUSCLE WASTING, AGING AND METABOLIC DISORDER” (NORTHWESTERN UNIVERSITY, priority 2018, published 2022)",
  "key": {"[1]": {"test_system": "Klf15, Mef2C, Foxo3 loci in mdx muscle", "test": "H3K27ac ChIP-seq on myofibers integrated with RNA-seq of mdx muscle", "assay_type": "in vivo, mouse", "method": "H3K27ac ChIP-seq on muscle myofibers. Freshly-isolated whole quadriceps muscles (both per mouse) were finely minced and digested in 10 ml/muscle of PBS supplemented with 1 mM CaCl2 and 100 U/ml collagenase II (Cat #17101, Life Technologies, Grand Island, N.Y.) at 37° C. for 1 hour with shaking. The suspension was then filtered through a 40 μm strainer (Cat #22363547, Fisher Scientific, Waltham, Mass.) and the unfiltered fraction (enriched in myofibers) was kept for further steps. Separation of mononuclear fraction in the filtered fraction was confirmed at the microscope. Myofibers were fixed in 10 ml 1% PFA for 30 minutes at room temperature with gentle nutation. Fixation was quenched 1 ml of 1.375M glycine (Cat #BP381-5, Fisher Scientific, Waltham, Mass.) with gentle nutation for 5 minutes at room temperature. After centrifugation at 3000 g for 5 minutes, myofibers were lysed in 1.4 ml lysis buffer with approximately 25 μl 2.3 mm zirconia/silica beads (Cat #11079125z, BioSpec, Bartlesville, Okla.). Lysis buffer consisted of 10 mM HEPES (pH 7.3; Cat #H3375), 10 mM KCl (Cat #P9541), 5 mM MgCl2 (Cat #M8266), 0.5 mM DTT (Cat #646563), 3 μg/ml cytochalasin B (C6762; all reagents from Sigma, St. Louis, Mo.); protease inhibitor cocktail (Cat #11852700, Roche, Mannheim, Germany)). Myofibers were them homogenized by means of Mini-BeadBeater-16 (Cat #607, Biospec, Bartlesville, Okla.) for 30 sec, then by rotating at 4° C. for 30 minutes. […] DNA was purified using the MinElute purification kit (cat #28004; Qiagen, Hilden, Germany), quantitated using Qubit reader and reagents. Library preparation and sequencing were conducted at the NU Genomics Core, using TrueSeq ChiP-seq library prep (with size exclusion) on 5 ng chromatin per ChIP sample or pooled input, and HiSeq 50 bp single-read sequencing (approximately 60 million read coverage per sample). […]"}, "[2]": {"test_system": "mdx mice", "test": "Metabolic cages (indirect calorimetry), mdx mice, 40 weeks", "assay_type": "in vivo, mouse", "conditions": "weekly prednisone", "method": "Metabolic cages. VO2 (ml/h/kg) and energy expenditure to body weight (kcal/h/kg) were assessed via indirect calorimetry using the TSE Automated Phenotyping System PhenoMaster (TSE system, Chesterfield, Mo.). Mice were singly housed in their home cages in an enclosed environmental chamber (part of the TSE system) with controlled temperature and light/dark cycles (12 hours each; 6 AM-6 PM). […] Measurements of CO2 production and O2 consumption occurred using the attached gas analyzer to assess energy expenditure. In addition, physical activity in three dimensions was monitored via infrared beam breaks through frames mounted on the perimeter of the metabolic cages. Enrichment items were omitted to avoid insulation from sensors and infrared light beam path obstruction. Results are expressed as 12 hour-period values (light/dark; 10 values per mouse). Metabolic cage assays were conducted blinded to treatment groups."}},
  "data": [
    {"smiles": "C[C@]12C=CC(=O)C=C1CC[C@@H]1[C@@H]2C(=O)C[C@@]2(C)[C@H]1CC[C@]2(O)C(=O)CO", "note": "[prednisone, Prednisone]", "values": [
      {"measurement": "Foxo3 and other muscle atrophy factors", "setting": "[1]; daily prednisone", "result": "upregulation"},
      {"measurement": "levels of Klf15 and Mef2C", "setting": "[1]; daily prednisone", "result": "reduced"},
      {"measurement": "H3K27ac marks and transcription of Klf15 and Mef2C", "setting": "[1]; weekly prednisone", "result": "increased"},
      {"measurement": "oxygen consumption (VO2) and energy expenditure during nocturnal activity", "setting": "[2]", "result": "increased"}
    ]}
  ]
}
